From patent US9790215B2 (FLATLEY DISCOVERY LAB, LLC, priority 2013, dated 2017)

Target: T1, human ΔF508-CFTR (Homo sapiens, UniProt P13569, DEL508-508)
T1 construct: expressed in transfected cells
Assay: CFTR-YFP High Throughput Assay (YFP halide flux in FRT cells)
Assay type: cell-based
Details: FRT cells expressing human ΔF508-CFTR and YFP; for EC50: forskolin stimulated
Method in brief: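 FRT cells stably co-expressing human ΔF508-CFTR and halide-sensitive YFP-H148Q/I152L were treated with compound […] for 24–26 h at 37 °C (corrector mode), washed, then stimulated with 20 μM forskolin plus 30 μM potentiator P3 for 60–120 min at room temperature. Iodide-induced YFP quench (ex 500/em 540 nm) rates came from least-squares fitting.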

T1 sequence (P13569 with tags, fused parts or gaps DEL508-508): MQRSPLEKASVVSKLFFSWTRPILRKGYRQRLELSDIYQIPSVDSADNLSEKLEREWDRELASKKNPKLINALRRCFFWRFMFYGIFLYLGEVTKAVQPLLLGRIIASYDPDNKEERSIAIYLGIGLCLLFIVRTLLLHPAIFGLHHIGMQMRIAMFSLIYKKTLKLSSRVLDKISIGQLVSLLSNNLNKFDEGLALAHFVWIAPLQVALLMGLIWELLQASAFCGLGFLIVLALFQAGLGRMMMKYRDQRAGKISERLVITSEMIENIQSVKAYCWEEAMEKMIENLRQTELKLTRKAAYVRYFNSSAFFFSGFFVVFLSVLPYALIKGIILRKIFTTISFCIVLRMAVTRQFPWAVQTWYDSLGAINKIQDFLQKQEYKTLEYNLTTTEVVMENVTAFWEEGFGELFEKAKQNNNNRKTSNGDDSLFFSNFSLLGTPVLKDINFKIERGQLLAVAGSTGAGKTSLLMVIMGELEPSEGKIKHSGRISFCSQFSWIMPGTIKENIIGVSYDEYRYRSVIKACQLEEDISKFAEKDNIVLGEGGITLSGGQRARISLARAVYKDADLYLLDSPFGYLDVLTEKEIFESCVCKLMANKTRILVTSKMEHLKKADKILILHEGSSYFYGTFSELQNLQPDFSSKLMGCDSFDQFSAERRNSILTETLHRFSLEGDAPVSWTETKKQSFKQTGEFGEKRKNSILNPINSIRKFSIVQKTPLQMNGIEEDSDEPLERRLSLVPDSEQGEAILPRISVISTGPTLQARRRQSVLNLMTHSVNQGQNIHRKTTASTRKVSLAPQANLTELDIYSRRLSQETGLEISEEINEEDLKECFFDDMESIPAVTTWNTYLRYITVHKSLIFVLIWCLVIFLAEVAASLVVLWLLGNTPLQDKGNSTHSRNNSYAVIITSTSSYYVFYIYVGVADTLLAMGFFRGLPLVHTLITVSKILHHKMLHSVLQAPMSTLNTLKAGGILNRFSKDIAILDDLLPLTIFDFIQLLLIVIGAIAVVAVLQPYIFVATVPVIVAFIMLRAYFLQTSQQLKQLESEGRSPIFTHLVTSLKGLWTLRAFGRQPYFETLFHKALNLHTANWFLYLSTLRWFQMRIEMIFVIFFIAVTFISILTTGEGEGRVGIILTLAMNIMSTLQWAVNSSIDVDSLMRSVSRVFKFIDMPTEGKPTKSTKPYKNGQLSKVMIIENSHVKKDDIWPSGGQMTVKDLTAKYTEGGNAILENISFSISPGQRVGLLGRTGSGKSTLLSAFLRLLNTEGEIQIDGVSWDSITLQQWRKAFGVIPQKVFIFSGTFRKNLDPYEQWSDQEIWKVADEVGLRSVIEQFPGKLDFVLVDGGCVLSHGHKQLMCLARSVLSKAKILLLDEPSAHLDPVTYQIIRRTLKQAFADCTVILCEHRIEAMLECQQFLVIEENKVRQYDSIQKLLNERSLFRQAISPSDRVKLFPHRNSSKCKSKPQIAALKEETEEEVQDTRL

SMILES | EC50 [µM] | % Efficacy (Emax normalized to the positive control) (Emax normalized to the positive control)
CCN(C(=O)c1nn(-c2nc3ccccc3s2)c(=O)c2c1c1ccccc1n2C)c1ccccc1 [Example 123, 3-(benzo[d]thiazol-2-yl)-N-ethyl-5-methyl-4-oxo-N-phenyl-4,5-dihydro-3H-pyridazino[4,5-b]indole-1-carboxamide] | 10 to 20 | –
CCN(C(=O)c1nn(-c2nc3ccccc3n2C)c(=O)c2c1c1ccccc1n2C)c1ccccc1 [Example 124, N-ethyl-5-methyl-3-(1-methyl-1H-benzo[d]imidazol-2-yl)-4-oxo-N-phenyl-4,5-dihydro-3H-pyridazino[4,5-b]indole-1-carboxamide] | > 20 | –
CCN(C(=O)c1nn(-c2ccc(C)cc2)c(=O)c2c1c1ccccc1n2C)c1ccc2c(c1)OC(F)(F)O2 [Example 133, N-(2,2-difluorobenzo[d][1,3]dioxol-5-yl)-N-ethyl-5-methyl-4-oxo-3-(p-tolyl)-4,5-dihydro-3H-pyridazino[4,5-b]indole-1-carboxamide] | < 10 | –
CCN(C(=O)c1nn(-c2ccc(C)cc2)c(=O)c2c1c1ccccc1n2C)c1cc(Cl)ccc1C(=O)O [Example 134, 4-chloro-2-(N-ethyl-5-methyl-4-oxo-3-(p-tolyl)-4,5-dihydro-3H-pyridazino[4,5-b]indole-1-carboxamido)benzoic acid] | < 10 | –
Cc1ccc(-n2nc(C(=O)Nc3cc(Cl)ccc3C(=O)O)c3c4ccccc4n(C)c3c2=O)cc1 [Example 135, 4-chloro-2-(5-methyl-4-oxo-3-(p-tolyl)-4,5-dihydro-3H-pyridazino[4,5-b]indole-1-carboxamido)benzoic acid] | < 10 | –
CCN(C(=O)c1nn(Cc2ccccc2)c(=O)c2c1c1ccccc1n2C)c1ccccc1 [Example 136, 3-benzyl-N-ethyl-5-methyl-4-oxo-N-phenyl-4,5-dihydro-3H-pyridazino[4,5-b]indole-1-carboxamide] | > 20 | –
CCN(C(=O)c1nn(C2CCN(Cc3ccccc3)CC2)c(=O)c2c1c1ccccc1n2C)c1ccccc1 [Example 137, 3-(1-benzylpiperidin-4-yl)-N-ethyl-5-methyl-4-oxo-N-phenyl-4,5-dihydro-3H-pyridazino[4,5-b]indole-1-carboxamide] | < 10 | –
CCN(C(=O)c1nn(C(C)C)c(=O)c2c1c1ccccc1n2C)c1cccc(Cl)c1 [Example 140, N-(3-chlorophenyl)-N-ethyl-3-isopropyl-5-methyl-4-oxo-4,5-dihydro-3H-pyridazino[4,5-b]indole-1-carboxamide] | < 10 | –
CCN(C(=O)Cn1nc(C(=O)N(CC)c2cccc(Cl)c2)c2c3ccccc3n(C)c2c1=O)c1ccc2c(c1)OC(F)(F)O2 [Example 141, N-(3-chlorophenyl)-3-(2-((2,2-difluorobenzo[d][1,3]dioxol-5-yl)(ethyl)amino)-2-oxoethyl)-N-ethyl-5-methyl-4-oxo-4,5-dihydro-3H-pyridazino[4,5-b]indole-1-carboxamide] | < 10 | –
CCc1ccc(N(CC)C(=O)Cn2nc(C(=O)N(CC)c3cccc(Cl)c3)c3c4ccccc4n(C)c3c2=O)cc1 [Example 142, N-(3-chlorophenyl)-N-ethyl-3-(2-(ethyl(4-ethylphenyl)amino)-2-oxoethyl)-5-methyl-4-oxo-4,5-dihydro-3H-pyridazino[4,5-b]indole-1-carboxamide] | < 10 | –
CCN(C(=O)c1nn(C2CCCCC2)c(=O)c2c1c1ccccc1n2C)c1cccc(Cl)c1 [Example 143, N-(3-chlorophenyl)-3-cyclohexyl-N-ethyl-5-methyl-4-oxo-4,5-dihydro-3H-pyridazino[4,5-b]indole-1-carboxamide] | < 10 | –
CCN(C(=O)c1nn(C(C)C)c(=O)c2c1c1ccccc1n2C)c1cc(Cl)ccc1C#N [Example 144, N-(5-chloro-2-cyanophenyl)-N-ethyl-3-isopropyl-5-methyl-4-oxo-4,5-dihydro-3H-pyridazino[4,5-b]indole-1-carboxamide] | < 10 | –
CCN(CC)C(=O)c1nn(CC(=O)N(CC)c2ccc3c(c2)OC(F)(F)O3)c(=O)c2c1c1ccccc1n2C [Example 145, 3-(2-((2,2-difluorobenzo[d][1,3]dioxol-5-yl)(ethyl)amino)-2-oxoethyl)-N,N-diethyl-5-methyl-4-oxo-4,5-dihydro-3H-pyridazino[4,5-b] indole-1-carboxamide] | < 10 | –
CCN(C(=O)c1nn(-c2ccc(C)cc2)c(=O)c2c1c1ccccc1n2C1CCC1)c1ccccc1 [Example 146, 5-cyclobutyl-N-ethyl-4-oxo-N-phenyl-3-p-tolyl-4,5-dihydro-3H-pyridazino[4,5-b]indole-1-carboxamide] | 10 to 20 | –
CCN(C(=O)c1nn(-c2ccc(C)cc2)c(=O)c2[nH]c3ccccc3c12)c1ccccc1 [Example 147, N-Ethyl-4-oxo-N-phenyl-3-p-tolyl-4,5-dihydro-3H-pyridazino[4,5-b]indole-1-carboxamide] | < 10 | –
CCN(C(=O)c1nn(-c2ccc(C)cc2)c(=O)c2[nH]c3ccccc3c12)c1cccc(Cl)c1 [Example 148, N-(3-chlorophenyl)-N-ethyl-4-oxo-3-(p-tolyl)-4,5-dihydro-3H-pyridazino[4,5-b]indole-1-carboxamide] | < 10 | –

Now from value to compound:

EC50 [µM] | % Efficacy (Emax normalized to the positive control) (Emax normalized to the positive control) | SMILES
< 10 | – | CCN(C(=O)c1nn(-c2ccccc2F)c(=O)c2c1c1ccccc1n2C)c1ccccc1 [Example 125, N-ethyl-3-(2-fluorophenyl)-5-methyl-4-oxo-N-phenyl-4,5-dihydro-3H-pyridazino[4,5-b]indole-1-carboxamide]
< 10 | – | CCN(C(=O)c1nn(-c2ccccc2)c(=O)c2c1c1ccccc1n2C)c1cccc(F)c1 [Example 126, N-ethyl-N-(3-fluorophenyl)-5-methyl-4-oxo-3-phenyl-4,5-dihydro-3H-pyridazino[4,5-b]indole-1-carboxamide]
< 10 | +++ (EMAX > 80%) | CCN(C(=O)c1nn(-c2ccccc2F)c(=O)c2c1c1ccccc1n2C)c1ccccc1 [Example 127, N-ethyl-3-(2-fluorophenyl)-5-methyl-4-oxo-N-phenyl-4,5-dihydro-3H-pyridazino[4,5-b]indole-1-carboxamide]
< 10 | – | CCN(C(=O)c1nn(-c2cnc3ccccc3c2)c(=O)c2c1c1ccccc1n2C)c1ccccc1 [Example 128, N-ethyl-5-methyl-4-oxo-N-phenyl-3-(quinolin-3-yl)-4,5-dihydro-3H-pyridazino[4,5-b]indole-1-carboxamide]
< 10 | – | CCN(C(=O)c1nn(-c2ccc(Cl)cc2)c(=O)c2c1c1ccccc1n2C)c1ccccc1 [Example 129, 3-(4-chlorophenyl)-N-ethyl-5-methyl-4-oxo-N-phenyl-4,5-dihydro-3H-pyridazino[4,5-b]indole-1-carboxamide]
< 10 | – | CCN(C(=O)c1nn(-c2ccc(OC)cc2)c(=O)c2c1c1ccccc1n2C)c1ccccc1 [Example 130, N-ethyl-3-(4-methoxyphenyl)-5-methyl-4-oxo-N-phenyl-4,5-dihydro-3H-pyridazino[4,5-b]indole-1-carboxamide]
< 10 | – | CCN(C(=O)c1nn(-c2ccc(C)cn2)c(=O)c2c1c1ccccc1n2C)c1ccccc1 [Example 131, N-ethyl-5-methyl-3-(5-methylpyridin-2-yl)-4-oxo-N-phenyl-4,5-dihydro-3H-pyridazino[4,5-b]indole-1-carboxamide]
< 10 | – | CCN(C(=O)c1nn(-c2ccccc2)c(=O)c2c1c1ccccc1n2C)c1cccc(Cl)c1 [Example 132, N-(3-chlorophenyl)-N-ethyl-5-methyl-4-oxo-3-phenyl-4,5-dihydro-3H-pyridazino[4,5-b]indole-1-carboxamide]
